According to US20150342954A1, “2-BENZYL, 3-(PYRIMIDIN-2-YL) SUBSTITUTED PYRAZOLES USEFUL AS SGC STIMULATORS” (IRONWOOD PHARMACEUTICALS, INC., priority 2011, published 2015):

Key:
[1] = biological target: T1, Human soluble guanylate cyclase enzyme (hsGC) (Homo sapiens, UniProt Q02108+Q02153); test: Purified human sGC enzyme activity assay (without SNP); assay type: biochemical; conditions: compound at 30 μM, absence of SNP; fold over DMSO control; Table 5A
T1 construct: purchased Enzo Inc. ALX-201-177
T1 sequence (Q02153 1-619): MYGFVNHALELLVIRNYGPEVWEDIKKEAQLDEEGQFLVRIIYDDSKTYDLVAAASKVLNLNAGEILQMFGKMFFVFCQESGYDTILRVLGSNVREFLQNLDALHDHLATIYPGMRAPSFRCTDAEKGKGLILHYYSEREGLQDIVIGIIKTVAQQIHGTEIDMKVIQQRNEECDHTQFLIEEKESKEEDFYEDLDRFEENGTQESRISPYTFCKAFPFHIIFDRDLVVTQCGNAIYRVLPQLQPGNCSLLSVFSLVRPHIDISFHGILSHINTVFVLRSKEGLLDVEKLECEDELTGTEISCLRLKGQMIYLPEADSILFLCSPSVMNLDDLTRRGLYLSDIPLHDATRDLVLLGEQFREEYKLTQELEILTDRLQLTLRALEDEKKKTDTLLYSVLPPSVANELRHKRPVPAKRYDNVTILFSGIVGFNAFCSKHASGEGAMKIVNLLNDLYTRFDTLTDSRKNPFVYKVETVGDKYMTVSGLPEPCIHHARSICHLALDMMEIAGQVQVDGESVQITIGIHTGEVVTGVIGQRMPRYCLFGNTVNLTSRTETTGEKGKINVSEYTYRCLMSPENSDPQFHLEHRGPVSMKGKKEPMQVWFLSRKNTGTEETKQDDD
T1 sequence (Q02108 1-690): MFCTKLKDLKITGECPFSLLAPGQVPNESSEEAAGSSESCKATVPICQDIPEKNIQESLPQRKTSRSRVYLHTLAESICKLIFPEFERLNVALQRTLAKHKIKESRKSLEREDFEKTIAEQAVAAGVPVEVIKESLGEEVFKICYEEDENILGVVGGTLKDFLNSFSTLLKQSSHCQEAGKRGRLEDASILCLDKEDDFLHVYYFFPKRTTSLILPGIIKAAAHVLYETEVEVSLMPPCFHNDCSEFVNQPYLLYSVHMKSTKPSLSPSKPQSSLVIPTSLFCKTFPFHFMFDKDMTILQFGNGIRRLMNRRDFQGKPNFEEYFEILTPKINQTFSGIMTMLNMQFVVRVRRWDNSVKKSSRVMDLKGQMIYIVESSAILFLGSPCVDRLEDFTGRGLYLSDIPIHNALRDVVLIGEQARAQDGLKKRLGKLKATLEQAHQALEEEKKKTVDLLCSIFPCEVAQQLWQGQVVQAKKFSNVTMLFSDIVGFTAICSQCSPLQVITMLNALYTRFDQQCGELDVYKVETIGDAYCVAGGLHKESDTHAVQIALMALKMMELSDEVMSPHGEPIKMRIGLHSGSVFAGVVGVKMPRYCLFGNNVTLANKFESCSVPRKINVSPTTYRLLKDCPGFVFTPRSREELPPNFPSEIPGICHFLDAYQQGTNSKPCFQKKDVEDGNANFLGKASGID
How it was run: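 Purified human sGC (5 ng) in 0.1 M Tris pH 8.0, 2 mM DTT, 2 mM MgCl2, 300 μM GTP, 1 mM IBMX, with compound at 10 or 30 μM final, 30 min at 37° C.; methanol-stopped. cGMP quantified against a standard curve; specific activity expressed as fold-change over DMSO control.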

Thoracic aortic rings = test: Alternative thoracic aortic rings assay (Example 5; original resting tension as 100% inhibition); conditions: rat thoracic aortic rings contracted with phenylephrine; for Aortic Ring Percent Relaxation at 1 μM: compound at 1 μM; for Aortic Ring Percent Relaxation at 3 μM: compound at 3 μM; for Aortic Ring Percent Relaxation at 10 μM: compound at 10 μM; for EC50: read-out: Aortic Ring EC50
Protocol: Thoracic aortic rings were dissected from anesthetized (isoflurane) male Sprague-Dawley rats weighing 275-299 g. Tissues were immediately transferred to ice-cold Krebs-Henseleit solution, which had been aerated with 95% 02 and 5% CO2 for 30 minutes. Following removal of connective tissue, aortic sections were cut into 4 rings (˜2 mm each) and suspended on 2 L-shaped hooks, with one hook fixed at the bottom of the tissue bath (Schuler Organ Bath, Harvard Apparatus) and the other connected to a force transducer (F30 Force Transducer, Harvard Apparatus). Baths contained Krebs Henseleit solution (10 mL) heated to 37° C. and aerated with 95% 02 and 5% CO2. Rings were brought to an initial tension of 0.3-0.5 g and gradually raised to a resting tension of 1.0 g over 60 minutes. Rings were rinsed with Krebs Henseleit solution (heated to 37° C. and aerated with 95% 02 and 5% CO2) at 15 minute intervals until a stable baseline was obtained. Rings were considered to be stable after a resting tension of 1.0 g was maintained (for approximately 10 minutes) without need for adjustment. Rings were then contracted with 100 ng/mL phenylephrine by adding 100 μL of a 10 μg/mL phenylephrine stock solution. Tissues achieving a stable contraction were then treated in a cumulative, dose dependent manner with test compounds prepared in dimethylsulfoxide (DMSO). In some cases, tissues were rinsed three times over a 5 minute period with Krebs-Heinseleit's solution (heated to 37° C. and aerated with 95% 02 and 5% CO2), allowed to stabilize at baseline, and then used for characterization of other test articles or DMSO effects. All data were collected using the HSE-ACAD software provided by Harvard Apparatus. […] EC50 values were calculated from concentration-response curves generated with GraphPad Prism Software.
Biological Activity Measurement by the Thoracic Aortic Rings Assay
The biological data for some of a compound of Table I, in comparison with the known compound, BAY 41-2272, as the reference compound, determined by the thoracic aorta ring assay of Example 5 are presented in Table 6 below.

SMILES	Enzyme Activity (increase at 30 μM without SNP) [1]	Aortic Ring Percent Relaxation at 1 μM (Thoracic aortic rings)	Aortic Ring Percent Relaxation at 3 μM (Thoracic aortic rings)	Aortic Ring Percent Relaxation at 10 μM (Thoracic aortic rings)	EC50 (Thoracic aortic rings)
Nc1nc(-c2cc(-c3ccon3)n(Cc3cccc(F)c3F)n2)ncc1NC(=O)C1(C(F)(F)F)CC1 [Compound 40]	C (5 to <10 fold increase)	G (100 to <120%)	G (100 to <120%)	G (100 to <120%)	< 2 µM
Nc1nc(-c2cc(-c3ccon3)n(Cc3ccccc3F)n2)ncc1NC(=O)C1(F)CC1 [Compound 35]	D (10 or <20 fold increase)	G (100 to <120%)	H (higher than 120%)	H (higher than 120%)	< 2 µM
Nc1nc(-c2cc(-c3ccon3)n(Cc3ccccc3F)n2)ncc1NC(=O)C1(c2ccccc2)CC1 [Compound 27]	D (10 or <20 fold increase)	F (80 to <100%)	G (100 to <120%)	G (100 to <120%)	< 2 µM
